Converted amounts (≈) assume the structure as drawn. Blank lines part the entries; values can stand above or below the compound they belong to.
Assays:
Toxoplasma gondii = test: Antiparasitic activity against Toxoplasma gondii tachyzoites infected in human HeLa cells; assay type: functional, organism-based
Trypanosoma cruzi = test: Antitrypanosomal activity against Trypanosoma cruzi trypomastigotes assessed as parasite growth inhibition; assay type: functional, organism-based
[1] = Binding affinity to PDE4 (unknown origin) expressed in Escherichia coli using cAMP as substrate assessed as inhibition constant by fluorescence polarization assay; design: species or system Homo sapiens
[2] = Inhibition of human recombinant catalytic domain PDE4 (152 to 484 residues) by fluorescence polarization assay
Autotaxin = Autotaxin (Homo sapiens, UniProt Q13822); test: Inhibition of ATX (unknown origin)

Structure (SMILES): O=C(O)CCc1cccc2c1B(O)OC2
IC50 (Toxoplasma gondii): 900 nM

IC50 (Trypanosoma cruzi): 0.01 µg/mL (≈ 0.0323 µM)
Structure (SMILES): COc1cc(C(=O)/C=C/c2ccc3c(c2)B(O)OC3)ccc1N

Structure (SMILES): N#Cc1ccc(Oc2ccc3c(c2)COB3O)cc1C#N
Ki [1]: 65 nM

IC50 [2]: 0.32 nM
Structure (SMILES): CC(=O)CCCOc1cc(C#N)c(Cl)nc1Oc1ccc2c(c1)COB2O

IC50 [2]: 3 nM
Structure (SMILES): CC(C)OCCOc1cc(C#N)cnc1Oc1ccc2c(c1)COB2O

IC50 (Autotaxin): 130 nM
Structure (SMILES): O=C(OCc1cc(Cl)cc(Cl)c1)N1CCN(C2CN(C(=O)c3ccc4c(c3)COB4O)C2)CC1

IC50 (Autotaxin): 13 nM
Structure (SMILES): O=C1N=C(N2CCN(Cc3ccc(B(O)O)cc3)CC2)S/C1=C/c1ccc(Cl)c(Cl)c1

Structure (SMILES): N#Cc1ccc(Oc2ccc3c(c2)COB3O)cc1 [CRISABOROLE]
Ki [1]: 173 nM

Reference: ChEMBL document CHEMBL5634093, “Elemental exchange: Bioisosteric replacement of phosphorus by boron in drug design” (Eur J Med Chem, 2023)
